Source: paper PMC11436758, “Computer-aided drug design to generate a unique antibiotic family” (Nature Communications, 2024)
In brackets after ≈: the same amount, converted by molar mass. Several values for one entry are separate records, joined by “and”; a condition that tells them apart may be missing. Identical values can stand only once.

Experiments:
E. coli (D22) = assay: MIC, outer-membrane-permeable lpxC point mutant; assay type: cell-based; conditions: Escherichia coli
Source text: (§1) The outer membrane of Gram-negative bacteria is a robust permeability barrier that prevents many antibiotics from entering Gram-negative cells[46],[47]. The outer leaflet of this outer membrane is primarily composed of the unique lipid lipopolysaccharide (LPS). Strains of E. coli with point mutations in genes coding for LPS biosynthetic enzymes have been isolated that enable some antibiotics to effectively pass through the outer membrane enabling activity against these strains of E. coli[48]–[54]; one such strain is E. coli (D22) which contains a point mutation in the lpxC gene.
(§2) The medium employed for the assay was Mueller Hinton II Broth (MHB II; Becton-Dickinson, Sparks, MD, USA). Agar plates used for the organisms were trypticase soy agar plus 5% sheep blood (BD; Sparks, MD, USA). MIC assay plates were prepared using the CLSI broth microdilution procedure. Automated liquid handlers (Multidrop 384, Biomek 2000 and Biomek FX) were used to conduct serial dilutions and liquid transfers. A standardized inoculum of each organism was prepared per CLSI methods. Suspensions were prepared to equal a 0.5 McFarland standard, followed by a 1:20 dilution in test media. […] The microplates were viewed from the bottom using a plate viewer and the MIC was read. The MIC was recorded as the lowest concentration of drug that inhibited visible growth of the organism. […]

wild type (K12) E. coli = assay: MIC, wild type E. coli; assay type: cell-based; conditions: Escherichia coli
Source text: as §1, §2

AcpS_R48A = target: T1, AcpS_R48A (Escherichia coli, UniProt P24224, R48A); assay: Inhibition of purified AcpS site-directed mutant by drug (Suppl Fig 3 source data); assay type: biochemical; conditions: for AcpS rate nM/min, Mean / AcpS rate: Suppl Fig 3, [AcpS_R48A] 5 nM; for AcpS rate: replicates
T1 construct: 6x-His (C); made in house

AcpS^F50/50A = AcpS^F50/50A (Escherichia coli, UniProt P24224, F49A); assay: Inhibition of purified AcpS site-directed mutant by DNM0547; assay type: biochemical, E. coli
Experimental: Using purified E. coli AcpS proteins, we determined the enzyme activity of wild-type and numerous AcpS mutants. Those analyzed by scanning alanine mutagenesis included (S. aureus amino acid residue followed by the corresponding E. coli residue) R46/48, F50/50, R54/53, K63/62, N82/81, and H-/108.
Recombinant His-Tagged AcpS expression was induced by IPTG addition and overnight culture. Cell lysate was obtained by sequential aspiration through 16, 18 and 21 G needles in a buffer of 50 mM Tris-HCl (pH 8.5), 10 mM MgCl2, 2 mM DTT, 5% glycerol, and further adjusted to pH 8.1 with MES. […] In a typical AcpS enzyme activity assay, 57 µM [^3H]acetyl-CoA, 2 µg apo-ACP, 10 mM MgCl2, 5 mM DTT, 50 mM Na phosphate (pH 7.0), and AcpS in a final volume of 10 µL were incubated at room temperature in a 1.5 mL microcentrifuge tube. At 5, 10, 15, and 20 min 2 µL of reaction were added to 750 µl 10% TCA on ice. […] 2 mL of scintillation fluid was added, and the amount of [^3H]-labeled holo-ACP formed was quantified by liquid scintillation counting. […] Routinely, each data point was determined at least by triplicate. […]
coli wild type and AcpS mutants determined using purified proteins. b, AcpS enzyme activity for each AcpS mutant was assayed at increasing concentration of DNM0547 (0-128 µM). IC50 was determined using GraphPad Prism. […]

T1 sequence (P24224 whole entry R48A): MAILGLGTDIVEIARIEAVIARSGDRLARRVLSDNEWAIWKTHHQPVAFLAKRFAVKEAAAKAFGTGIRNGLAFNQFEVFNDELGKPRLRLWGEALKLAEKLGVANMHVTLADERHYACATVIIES
Chain of AcpS^F50/50A (P24224 2-126 F49A): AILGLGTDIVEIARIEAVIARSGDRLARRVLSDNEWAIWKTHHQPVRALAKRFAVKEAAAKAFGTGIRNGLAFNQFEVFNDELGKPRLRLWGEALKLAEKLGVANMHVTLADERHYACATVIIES

CC(C)c1cc(Cl)ccc1-c1cc(-c2nnn[nH]2)c(-c2ccc(Cl)cc2C(C)C)s1 [DNM0547]
MIC (E. coli (D22)): 32 µg/mL (≈ 70 µM)
MIC (wild type (K12) E. coli): 256 µg/mL (≈ 560 µM)
AcpS rate nM/min, Mean (AcpS_R48A; Drug Conc 1 uM): 97.88 nM/min
AcpS rate (AcpS_R48A; Drug Conc 1 uM): 102.89 nM/min and 96.62 nM/min and 94.12 nM/min
AcpS rate nM/min, Mean (AcpS_R48A; Drug Conc 2 uM): 93.89 nM/min
AcpS rate (AcpS_R48A; Drug Conc 2 uM): 97.97 nM/min and 91.69 nM/min and 92.02 nM/min
AcpS rate nM/min, Mean (AcpS_R48A; Drug Conc 4 uM): 94.54 nM/min
AcpS rate (AcpS_R48A; Drug Conc 4 uM): 95.47 nM/min and 93.88 nM/min and 94.27 nM/min
AcpS rate nM/min, Mean (AcpS_R48A; Drug Conc 8 uM): 92.47 nM/min
AcpS rate (AcpS_R48A; Drug Conc 8 uM): 92.76 nM/min and 91.81 nM/min and 92.85 nM/min
AcpS rate nM/min, Mean (AcpS_R48A; Drug Conc 16 uM): 48.14 nM/min
AcpS rate (AcpS_R48A; Drug Conc 16 uM): 58.48 nM/min and 54.48 nM/min and 31.45 nM/min
AcpS rate nM/min, Mean (AcpS_R48A; Drug Conc 32 uM): 20.22 nM/min
AcpS rate (AcpS_R48A; Drug Conc 32 uM): 22.18 nM/min and 16.02 nM/min and 22.44 nM/min
AcpS rate nM/min, Mean (AcpS_R48A; Drug Conc 64 uM): 10.15 nM/min
AcpS rate (AcpS_R48A; Drug Conc 64 uM): 9.77 nM/min and 11.77 nM/min and 8.90 nM/min
AcpS rate nM/min, Mean (AcpS_R48A; Drug Conc 128 uM): 4.77 nM/min
AcpS rate (AcpS_R48A; Drug Conc 128 uM): 4.67 nM/min (2×) and 4.95 nM/min
remaining activity at 1 µM (AcpS_R48A; read-out: % of untreated, Suppl Fig 3, [AcpS_R48A] 5 nM, Drug Conc 1 uM, replicates): 106%
remaining activity at 2 µM (AcpS_R48A; read-out: % of untreated, Suppl Fig 3, [AcpS_R48A] 5 nM, Drug Conc 2 uM, replicates): 101%
remaining activity at 4 µM (AcpS_R48A; read-out: % of untreated, Suppl Fig 3, [AcpS_R48A] 5 nM, Drug Conc 4 uM, replicates): 98.7%
remaining activity at 8 µM (AcpS_R48A; read-out: % of untreated, Suppl Fig 3, [AcpS_R48A] 5 nM, Drug Conc 8 uM, replicates): 95.9%
remaining activity at 32 µM (AcpS_R48A; read-out: % of untreated, Suppl Fig 3, [AcpS_R48A] 5 nM, Drug Conc 32 uM, replicates): 22.9%
remaining activity at 64 µM (AcpS_R48A; read-out: % of untreated, Suppl Fig 3, [AcpS_R48A] 5 nM, Drug Conc 64 uM, replicates): 10.1%
remaining activity at 128 µM (AcpS_R48A; read-out: % of untreated, Suppl Fig 3, [AcpS_R48A] 5 nM, Drug Conc 128 uM, replicates): 4.83%
IC50 (AcpS^F50/50A): 16.2 µM
